One series has as its system kainate receptor. The conditions noted are these: rat; Narita et al. 1993; cited from earlier work.
A short description of series [1]: General symptoms in the similar dog experiment (Example 5). The conditions noted are these: similar experiment with GABA. It is filed as in vivo.
The test system of series [2] is poriomaniac behavior of dog. Kind of series: Night activity of a demented dog with poriomania, recorded by CCD camera (Example 5). It is filed as in vivo. How it is done: A male Pomeranian of 11 years old was used. The dog was established to have been demented and to have suffered from poriomania. About 200 g of a canned feed for dogs (Maintenance Canned Beef available from Nippon Hills Colgate Company) per day was fed to this animal in two portions in the morning and evening. On the other hand, water was available ad libitum.
The experiment was conducted in the laboratory under controlled conditions of room temperature of about 22° C. The cage (150 cm×90 cm) was illuminated by infrared light and the activity of the experimental animal in the night was detected by a monochrome CCD camera. The traces of activity were recorded on a microcomputer every 10 minutes. The traces were recorded for 2 days before treatment, after the animal was maintained and acclimatized to the conditions, and the records were used as the pre-treatment data. The data recording started at about 18:00 and the activity was recorded for 800 minutes.
The migration time is the time of the migration of the animal during the experiment. The migration length is the distance of migration of the animal during the experiment. The start of poriomaniac behavior was defined as the start of migration came after the quiescent state of not less than 10 minutes and the end of the poriomaniac behavior was defined as the stop of migration which was confirmed to be maintained for […] 10 minutes. One incident of the poriomaniac behavior was defined as the behavior from the start to the end of the aforementioned migration. One episode means one incident of the poriomaniac behavior.

The test system of series [3] is rat's running activity in the night. The series is described as follows: Running-wheel activity in the night after intraperitoneal administration (Example 1). It is filed as in vivo. The conditions noted are these: ip, rats. How it is done: Rats (Wistar-Imamichi; 7-week-old) were kept in a cage equipped with a running wheel. The animals were kept under such lighting conditions that the lighting was initiated at 7:00 and it was stopped at 19:00, while the animals were allowed to freely eat diet and drink water. They were kept over 3 weeks without subjecting them to any treatment or they were not subjected to any treatment until they sufficiently habituated to the keeping environment or the cage.
These animals were treated by intraperitoneal administration of GABAB receptor agonist, SKF97541, in an amount of 1.0 mg/kg or 0.5 mg/kg at around 18:00. A group of these animals to which physiological saline had separately been administered was used as a control group. Regarding the quantity of running, the counts detected by a sensor equipped with a running wheel were inputted to a computer at intervals of 30 minutes to thus evaluate the accumulated counts in the night, which was defined to be the quantity of acts in the night. Thus, the relative rate of the accumulated count observed for the individual animal was calculated while the accumulated count observed for each animal prior to the treatment was assumed to be 1.

Series [4] concerns intentional motions of rats. The series is described as follows: Forced swimming test, strokes by the forelimbs (Example 2). It is filed as in vivo, rat. Conditions: 0.5 mg/kg intraperitoneal, 30 minutes to 3 hours after administration, versus saline control, FIG. 2. Here is the method: A GABAB receptor agonist, SKF97541, was intraperitoneally administered to rats, which had been kept under the same conditions used in Example 1, in an amount of 0.5 mg/kg and these animals were put in water maintained at a temperature ranging from 35 to 37° C. after 30 minutes to 3 hours from the administration of the […]. […] The rats were forced to swim in the pool to determine the number of strokes by the forelimbs of these animals per 5 minutes. A group of these animals to which physiological saline had separately been administered was used as a control group.

Setting [5] is: 150 mg powdered GABA in food at 18:00, post-treatment, 800 minutes recording.

Structures are written as SMILES.

Regarding `O=C1N=c2cc([N+](=O)[O-])c([N+](=O)[O-])cc2=NC1=O` [DNQX, 6,7-dinitroquinoxaline-2,3-dione], the “inhibition of running activity induced by kainate” value with kainate receptor is recorded as “inhibited”.
As for `NCCCC(=O)O` [GABA, γ-aminobutyric acid], the general symptoms result in series [1] is listed as “no particular notable events were observed”. Further, in series [2] (150 mg of GABA), the “change in each parameter compared to pre-treatment data” value was “significant decrease”. Moreover, in series [2] (setting [5]), the “mean duration time of each episode” value is 0.7 min, the migration length is reported as 44.7 cm, the migration time came to 1.4 min and the number of episodes is on record as 2.
As to `CP(=O)(O)CCCN` [SKF97541, 3-aminopropyl (methyl) phosphinic acid], the inhibition at 0.5 mg/kg in series [3] (0.5 mg/kg intraperitoneal at around 18:00, FIG. 1, read-out: inhibitory effect on quantity of running activity in the night, relative to the control group) was in the range of 40 to 60%. In addition, the inhibition at 1 mg/kg in series [3] (1.0 mg/kg intraperitoneal at around 18:00, estimated, FIG. 1, read-out: inhibitory effect on quantity of running activity in the night, relative to the control group) was around 70%. Besides, the “number of strokes by the forelimbs per 5 minutes” value in series [4] is recorded as “not reduced”.
On to `C=C(C)[C@H]1CN[C@H](C(=O)O)[C@H]1CC(=O)O` [kainate], for which the “induction of running activity” value with kainate receptor is reported as “induced”.

The values above are taken from patent publication US20010051618A1 (priority 2000, published 2001).
